Results: patent publication US11571455B2, “Methods and compositions for treating alcoholic liver disease” (VANDERBILT UNIVERSITY, priority 2013, dated 2023)
Bridge positions count the residues as written; N and C are the ends. Peptide text beside a SMILES is read from it.

Legend:
[1] = tested on: Staphylococcal enterotoxin B-induced systemic inflammation; settings: mouse, in vivo
[2] = tested on: nuclear import of NF-κB, AP-1, NFAT, and STAT1 in Jurkat T cells; assay type: cell-based, human
[3] = target: T1, importin α5/karyopherin α1 (/KPNA1/SRP1) (Homo sapiens, UniProt P52294); assay: Binding to the nuclear import adaptor
T1 construct: SRP1/importin alpha 5 (karyopherin alpha1)/importin beta 1 heterodimer expressed in Jurkat T cells; endogenous in cells; host or cells: Jurkat T cells
Source text: Inflammatory liver injury mediated by macrophages (Kupffer cells) or T cells depends on the nuclear import of SRTFs. SRTFs regulate the genome response to proinflammatory and proapoptotic cues. The mechanism of action of cell-penetrating peptides SN50 and its cyclized analog cSN50 that inhibit the nuclear import of SRTFs is shown herein. SN50 binds to a nuclear import adaptor protein termed importin α5/karyopherin α1 (/KPNA1/SRP1) and inhibits its function as a cytoplasmic/nuclear shuttle for SRTFs. […] However, prior to the present disclosure, it was not known how EtOH influences the importin α5/karyopherin α1 (/KPNA1/SRP1)—mediated signaling to the nucleus and genome response in hepatocytes induced by LPS or Con A. Also identified was another putative nuclear import adapter, termed SARM, which appears to participate in LPS-induced liver injury. […] Example 2: Nuclear Import of Stress-Responsive Transcription Factors (SRTFs) Is Required for Inflammatory and Apoptotic Gene Expression.
It is well-recognized that signaling to the nucleus plays a key role in the response of T lymphocytes to immune and inflammatory stimuli. […]

T1 sequence (P52294 whole entry): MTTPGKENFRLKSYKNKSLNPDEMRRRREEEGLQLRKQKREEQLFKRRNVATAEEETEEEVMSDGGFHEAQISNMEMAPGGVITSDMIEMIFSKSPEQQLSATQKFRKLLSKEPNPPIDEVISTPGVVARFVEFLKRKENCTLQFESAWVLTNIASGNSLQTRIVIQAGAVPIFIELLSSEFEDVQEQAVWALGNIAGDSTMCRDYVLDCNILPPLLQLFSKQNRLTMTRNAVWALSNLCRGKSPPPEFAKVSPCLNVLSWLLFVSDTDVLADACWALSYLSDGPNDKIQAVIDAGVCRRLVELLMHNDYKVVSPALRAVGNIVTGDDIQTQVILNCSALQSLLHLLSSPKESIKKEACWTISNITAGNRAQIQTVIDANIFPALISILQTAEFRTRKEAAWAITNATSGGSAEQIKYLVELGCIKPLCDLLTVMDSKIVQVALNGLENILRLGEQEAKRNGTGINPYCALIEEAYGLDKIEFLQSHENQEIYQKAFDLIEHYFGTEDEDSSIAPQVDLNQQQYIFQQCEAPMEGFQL
T1 sequence (Q14974 whole entry partner): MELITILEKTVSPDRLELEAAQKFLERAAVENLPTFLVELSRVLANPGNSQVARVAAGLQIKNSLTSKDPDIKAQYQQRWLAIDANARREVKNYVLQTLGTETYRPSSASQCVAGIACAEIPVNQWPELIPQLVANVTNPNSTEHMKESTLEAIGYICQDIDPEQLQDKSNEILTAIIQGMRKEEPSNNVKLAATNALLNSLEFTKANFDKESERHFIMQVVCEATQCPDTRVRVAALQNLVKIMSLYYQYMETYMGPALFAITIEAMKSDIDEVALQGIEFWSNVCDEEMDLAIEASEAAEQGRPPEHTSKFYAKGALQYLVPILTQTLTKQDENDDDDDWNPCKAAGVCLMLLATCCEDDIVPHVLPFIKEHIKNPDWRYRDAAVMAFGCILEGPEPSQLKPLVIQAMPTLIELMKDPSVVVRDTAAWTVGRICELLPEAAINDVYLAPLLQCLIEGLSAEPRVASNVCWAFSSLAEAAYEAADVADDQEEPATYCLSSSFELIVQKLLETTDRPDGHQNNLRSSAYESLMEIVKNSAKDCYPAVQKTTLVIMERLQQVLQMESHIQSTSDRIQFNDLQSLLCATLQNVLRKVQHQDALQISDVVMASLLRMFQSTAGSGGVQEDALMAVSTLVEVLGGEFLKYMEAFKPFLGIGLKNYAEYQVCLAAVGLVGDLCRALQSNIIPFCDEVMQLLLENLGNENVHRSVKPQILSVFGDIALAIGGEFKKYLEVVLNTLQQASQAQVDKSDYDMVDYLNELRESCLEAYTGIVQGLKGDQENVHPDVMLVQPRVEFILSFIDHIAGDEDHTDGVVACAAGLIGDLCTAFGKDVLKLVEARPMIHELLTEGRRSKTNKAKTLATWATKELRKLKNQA

Row | Compound | undesirable side effects [1] | nuclear import of SRTFs [2] | binding to importin α5/karyopherin α1 [3]
1 | CSCC[C@@H]1NC(=O)[C@H](CC(C)C)NC(=O)[C@H](CCCCN)NC(=O)[C@H](CCC(N)=O)NC(=O)[C@H](CCCNC(=N)N)NC(=O)[C@H](CCCCN)NC(=O)[C@H](CCCNC(=N)N)NC(=O)[C@H](CCC(N)=O)NC(=O)[C@H](C(C)C)NC(=O)[C@H](Cc2ccc(O)cc2)NC(=O)[C@@H](NC(=O)[C@@H]2CCCN2C(=O)[C@H](C)NC(=O)[C@H](CC(C)C)NC(=O)[C@H](CC(C)C)NC(=O)[C@H](C)NC(=O)[C@H](CC(C)C)NC(=O)[C@H](CC(C)C)NC(=O)[C@@H](NC(=O)[C@H](C)NC(=O)[C@@H]2CCCN2C(=O)[C@H](CC(C)C)NC(=O)[C@H](CC(C)C)NC(=O)[C@H](C)NC(=O)[C@@H](NC(=O)[C@H](C)NC(=O)[C@H](C)N)C(C)C)C(C)C)CSSC[C@@H](C(=O)O)NC(=O)[C@@H]2CCCN2C1=O [cSN50] (H-AAVALLPAVLLALLAPCYVQRKRQKLMPC-OH; disulfide 17-29; N-terminus and C-terminus assumed) | does not seem to cause undesirable side effects | – | –
2 | AAVALLPAVLLALLAPVQRKRQKLMP [SN50, SSHR of K-FGF linked to NLS of NF-κB1 p50] | – | prevents nuclear import of four SRTFs | binds
